Measurements taken from patent publication US20230348437A1, “COMPOUNDS, COMPOSITIONS AND METHODS” (Denali Therapeutics Inc., priority 2020, published 2023).

Columns and labels:
[1] = test system: NLRP3 (IL-1β secretion from THP-1 cells); experiment: IL-1β secretion assay in 384-well plates, PMA differentiated THP-1 cells, LPS and nigericin stimulation; format: cell-based; conditions: Homo sapiens; THP-1 cells, PMA 5 ng/mL, LPS 25 ng/mL, nigericin, IL-1β ELISA, 384-well; read-out: Activity
Protocol: Compounds as provided herein were tested in the following assay. […] Freezing medium was made up of 90% FBS and 10% DMSO. THP-1 cells were removed from the liquid nitrogen and placed into a 37° C. water bath to thaw, until signs of ice dissipated. The cells were then added to 9 mL of warm cell culture medium and centrifuged for 5 minutes at 1000 rpm. The supernatant was discarded, and the cells were resuspended in new cell culture medium. The THP-1 cells were then split and cultured in the cell culture medium, being passaged every 2-3 days (5×10^5 cells/mL passaged every two days, 3×10^5 cells/mL passaged every three days). Cell density was maintained between 5×10^5-1.5×10^6 viable cells/mL.
PMA was dissolved in DMSO to make a stock solution at 5 mg/mL and stored in 10 µl aliquots at -20° C. for single use. PMA is added to normal growth medium. LPS was diluted with 1 mL of water solution to provide a 1 mg/mL stock solution and stored in 15 µl aliquots at -20° C. for single use. Nigericin is diluted in ice cold 100% ethanol to 5 mg/mL (6.7 mM) and stored in 75 µL aliquots at -20° C. for single use. […] The two control conditions used to qualify and normalize test compound dose-response curves were as follows: High Control = 25 ng/mL LPS, 5 µM Nigericin, 0.5% DMSO, Low Control = 25 ng/mL, LPS, 0.5% DMSO.
THP-1 cells were diluted to provide a suspension at a concentration of 1.0×10^6 cells/mL with the total volume of suspension required to enable the desired number of assay plates. The growth media was supplemented with PMA (5 ng/mL final concentration) and the cells were incubated at 37° C. under a humidified atmosphere of 5% CO2 for 40 h.
All media was carefully aspirated from each culture flask. The cells were washed carefully with 1x DPBS. The cells were then briefly digested with trypsin LE for 5 minutes at 23° C. and immediately resuspended in cell growth media. After resuspension, the cells were centrifuged at 1000 rpm for 3 minutes and the supernatant was discarded. The cells were resuspended in DPBS and once again centrifuged at 1000 rpm for 5 minutes. The supernatant was discarded and the cell pellet was resuspended in serum-free media supplemented with LPS (25 ng/mL final concentration) to enable the distribution of 30 K THP-1 cells within 45 µL of media into each well of 384-well PDL-coated plates. The 384-well plates were then incubated at 37° C. under a humidified atmosphere of 5% CO2 for 2 h. Following this period, test compounds were dispensed by Tecan across the desired concentration range with all wells normalized to a final 0.5 % DMSO concentration. The plates were then incubated at 37° C. under a humidified atmosphere of 5% CO2 for 1 h. Following this period, 5 µL of the […] nigericin stock solution was added to each of the appropriate wells and plates were centrifuged at 1000 rpm for 30 seconds. The plates were the immediately reintroduced to the incubator at 37° C. under a humidified atmosphere of 5% CO2 for 2 h. After this time, 35 µL/well of supernatant was collected and transferred into v-bottom plate and centrifuged at 1000 rpm for 1 minute. These supernatant aliquots were analyzed using an IL-Iβ detection kit as described below. If needed, the test samples could be snap frozen and stored at -80° C. until analyzed.
To prepare each ELISA plate, capture antibody (mAb Mt175) was diluted with PBS to a final concentration of 2 µg/mL and then 20 µL of this solution was added to each well of the ELISA plate. Each plate was allowed to incubate overnight at 4° C. The next day, the capture antibody solution was removed and discarded. […] Each ELISA plate was then allowed to incubate for 1 hour at 23° C. After this time, the blocking buffer was removed and discarded. Each ELISA plate was washed 4 times with PBST. During this time, the v-bottomed plates containing the supernatant aliquots from the assay run were centrifuged at 300 g for 5 minutes before transferring 15 µL/well of the supernatant sample to each ELISA plate. […]

[2] = test system: NLRP3 (IL-1β release from THP-1 cells); experiment: IL-1β detection in IFN-γ differentiated THP-1 cells, LPS induction and ATP, 96 well format; format: cell-based; conditions: Homo sapiens, IFN-γ 25 ng/mL, LPS 50 ng/mL, ATP 5 mM, IL-1β ELISA, read-out: Activity (IC50 class)
Protocol: Compounds as provided herein were tested in the following assay. Cell culture medium employed contained RPMI 1640 medium (89%), FBS (10%), Pen/Strep (1%), and 2-mercaptoethanol (0.05 mM). Freezing medium was made up of 90% FBS and 10% DMSO. THP-1 cells were removed from the liquid nitrogen and placed into a 37° C. water bath to thaw, until signs of ice dissipated. The cells were then added to 9 mL of warm cell culture medium and centrifuged for 5 minutes at 1000 rpm. The supernatant was discarded, and the cells were resuspended in new cell culture medium. The THP-1 cells were then split and cultured in the cell culture medium, being passaged every 2-3 days (5×10^5 cells/mL passaged every two days, 3×10^5 cells/mL passaged every three days). Cell density was maintained between 5×10^5-1.5×10^6 viable cells/mL.
To freeze, cells were resuspended with fresh freezing medium, adjusting the cell density to between 3×10^6-10×10^6 cells/mL. The cell suspension was partitioned into 1 mL aliquots per vial, and the vials were transferred to a -80° C. freezer. After one day at -80° C., the cell vials were transferred to liquid nitrogen freezer for storage.
PBST solution was prepared by mixing 3600 mL of water, 400 mL of 10X PBS, and 4 mL of Tween 20. IFN-γ solution was reconstituted with 100 µL of water to obtain a 1 mg/mL solution, which was then diluted with 0.1 % BSA to provide a 100 ng/mL solution. The IFN-γ solution was stored at -20° C. LPS was reconstituted with 1 mL of PBS solution to obtain a 1 mg/mL stock solution, which was further diluted to 50 ng/mL with serum-free medium. The LPS solution was stored at 4° C.
The 96 well plates were then incubated at 37° C. under a humidified atmosphere of 5% CO2 for 24 h.
LPS induction: When IFN-γ treatment was completed, the supernatants were discarded by hand. 100 µL of a 1X solution of LPS in serum-free medium (50 ng/mL) was added. The plates were incubated in a 37° C. incubator under a humidified atmosphere of 5% CO2 for 4 h. Sample compounds were dissolved in DMSO and the compound solutions were dispensed to the wells using a Tecan D300e digital dispenser. The final concentration of DMSO for each well was 0.5%. The plates were then incubated at 37° C. under a humidified atmosphere of 5% CO2 for 1 h. 20 µL of a 6X solution of ATP was added (final concentration per well: 5 mM), and the plates incubated at 37° C. under a humidified atmosphere of 5% CO2 for 1 h. The supernatants were then collected and analyzed using an IL-Iβ detection kit. If needed, the test samples could be stored at -20° C. until analyzed.
Compound dilution: Compound solution source plates (20 µL of a 10 mM solution of each compound was delivered to the specified wells and stored in a nitrogen cabinet until tested.
Coat Elisa plate: The captured antibody (mAb Mt175) was diluted in PBS to a concentration of 2 µg/mL, and then used to coat the ELISA plate (SIGMA-P6366) overnight at 4° C.
The antibody coat was discarded and the plate was washed 4 times with PBST. The plate was blocked by adding 25 µL/well of blocking buffer (LiCor-927-40000) with 0.1% Tween 20, then incubated for 1 h at room temperature. The blocking buffer was then discarded and the plate was washed 4 times with PBST.
One hour before test sample addition, the sample plates were allowed to thaw at room temperature, centrifuged at 1000 rpm for 1 minute, and shaken for 30 seconds. 25 µL/well of the test samples were transferred to the ELISA plate, and the plate was incubated for 2 h at room temperature.
The test samples were discarded and the ELISA plate was washed 4 times with PBST. 15 µL/well of mAb7P10-biotin at 0.5 µg/mL (1:1000) in blocking buffer was then added to the ELISA plate and it was incubated for 1 h at room temperature.
The antibody was discarded and the ELISA plate was washed 4 times with PBST. Then 15 µL/well of streptavidin-HRP diluted 1:1000 in blocking buffer was added to the ELISA plate and it was allowed to incubate for 1 h at room temperature.

Row | Compound | IC50 [1] | IC50 [2]
1 | CC(C)c1nn(CC(=O)N[C@H]2C[C@@](C)(O)C2)c(=O)cc1-c1ccccc1F [Example 11, 2-(4-(2-fluorophenyl)-3-isopropyl-6-oxopyridazin-1(6H)-yl)-N-(cis-3-hydroxy-3-methylcyclobutyl)acetamide] | 2.88 µM | < 10 µM
2 | CC(C)c1nn(CC(=O)N[C@H]2C[C@@](C)(O)C2)c(=O)cc1-c1cc(Cl)ccc1Cl [Example 16, 2-(4-(2,5-dichlorophenyl)-3-isopropyl-6-oxopyridazin-1(6H)-yl)-N-(cis-3-hydroxy-3-methylcyclobutyl)acet amide] | 1.15 µM | < 10 µM
3 | CC(C)c1nn(CC(=O)N[C@H]2C[C@@](C)(O)C2)c(=O)cc1-c1cccc(Cl)c1Cl [Example 15, 2-(4-(2,3-dichlorophenyl)-3-isopropyl-6-oxopyridazin-1(6H)-yl)-N-(cis-3-hydroxy-3-methylcyclobutyl)acet amide] | 3.51 µM | < 10 µM
4 | CC(C)c1nn(CC(=O)N[C@H]2C[C@@](C)(O)C2)c(=O)nc1-c1ccccc1 [Example 20, N-(cis-3-hydroxy-3-methylcyclobutyl)-2-(6-isopropyl-3-oxo-5-phenyl-1,2,4-triazin-2(3H)-yl)acetamide] | 24 µM | < 10 µM
5 | CC(C)c1nn(CC(=O)N[C@H]2C[C@@](C)(O)C2)c(=O)cc1-c1ccccn1 [Example 17] | 19.5 µM | < 10 µM
6 | COc1cccc(-c2cc(=O)n(CC(=O)N[C@H]3C[C@@](C)(O)C3)nc2C(C)C)c1 [Example 7] | 7.06 µM | < 10 µM
7 | CC(C)c1nn(CC(=O)Nc2ncncc2F)c(=O)cc1-c1cccc(Cl)c1 [Example 6, 2-(4-(3-chlorophenyl)-3-isopropyl-6-oxopyridazin-1(6H)-yl)-N-(5-fluoropyrimidin-4-yl)acetamide] | 0.535 µM | < 10 µM
8 | CC(C)c1nn(CC(=O)N[C@H]2C[C@@](C)(O)C2)c(=O)cc1-c1cccc(C(F)(F)F)c1 [Example 13, N-(cis-3-hydroxy-3-methylcyclobutyl)-2-(3-isopropyl-6-oxo-4-(3-(trifluoromethyl)pheny 1)pyridazin-1(6H)-yl)acetamide] | 21.8 µM | < 10 µM
9 | CCc1nn(CC(=O)N[C@H]2C[C@@](C)(O)C2)c(=O)cc1-c1ccccc1 [Example 3, 2-(3-Ethyl-6-oxo-4-phenylpyridazin-1(6H)-yl)-N-(cis-3-hydroxy-3-methylcyclobutyl)acetamide] | 6.77 µM | < 10 µM
10 | CC(C)c1nn(CC(=O)N[C@H]2C[C@@](C)(O)C2)c(=O)cc1-c1ccccc1 [Example 1, N-(cis-3-hydroxy-3-methylcyclobutyl)-2-(3-isopropyl-6-oxo-4-phenylpyridazin-1(6H)-yl)acetamide] | 3.32 µM | < 10 µM
